Data on two molecules can be found in patent publication US20240262808A1, “XANTHINE OXIDASE INHIBITOR” (JIANGSU ATOM BIOSCIENCE AND PHARMACEUTICAL CO., LTD., priority 2021, published 2024).

One data set concerns subjects. To be noted: allopurinol used at maximum doses; cited from earlier work.
In the next data set the test system is patients with gout. To be noted: cited from earlier work; for Sudden cardiac death, share of group: patients with gout, per treatment group.
The test system of data set [1] is rats with hyperuricemia induced by potassium oxonate. The data set can be described thus: Treatment of hyperuricemia in rats induced by potassium oxonate, serum uric acid. The class given is in vivo, SD rat. To be noted: for Uric acid 1 h: 1 h after potassium oxonate; for Uric acid 3 h: 3 h after potassium oxonate; for Uric acid 5 h: 5 h after potassium oxonate; for Uric acid 0 h: before potassium oxonate injection; for Serum uric acid level compared with model group: 1 and 2 mg/kg groups, at 1, 3 and 5 h after model establishment. The method, then:
Compounds 15, 24 and 38 were white powder, and compound 57 was light yellow powder, which was ground with 0.5% CMC-Na before use and prepared into suspension with corresponding concentrations (0.2 and 0.4 mg/mL) for gavage.
SD rat, SPF grade, male, weighing 180-220 g, purchased from Shanghai Slake Experimental Animal Co., Ltd., production license number: SCXK (Hu) 2017-0005, quality certificate number: 20170005050604.
72 SD rats, male, weighed about 200-230 g after one week of acclimatization. […] Drugs for each group were prepared into suspension with corresponding concentration, and the administration volume was 0.5 mL/100 g.
After purchased and fed for acclimatization, the rats in each group were fasted for 12 h, and the model was established by intraperitoneal injection with potassium oxonate at the dose of 300 mg/kg, and each of the test drug groups were administrated once by gavage after model establishment. Blood samples were collected from posterior orbital venous plexus before and 1, 3 and 5 h after potassium oxonate injection, centrifugated at 3500 rpm for 10 min, and 30 μL serum was taken to determine uric acid levels at each time point.
Then in two consecutive days, rat models were established with potassium oxonate by intraperitoneal injection at a dose of 300 mg/kg every day, and each test drug group was administrated once by gavage after model establishment. On the third day of administration, the rats were fasted for 12 h, and with the same test method on the first day, blood samples were collected from the posterior orbital venous plexus before and 1, 3 and 5 h after potassium oxonate injection, centrifuged at 3500 rpm for 10 min, and 30 μL serum was taken to determine the uric acid level at each time point.
The measurement data of each experiment were expressed as (mean)±s (standard deviation). ANOVA-Dunnett T test was used to investigate the significance between groups, and P<0.05 was used as a significant index, P<0.01 was used as a very significant index.

Setting [2] is: 1-day administration, 1 mg/kg gavage.
Where [3] appears, read: 1-day administration, 2 mg/kg gavage.
[4] abbreviates: 3-day administration, 1 mg/kg gavage.
[5] abbreviates: 3-day administration, 2 mg/kg gavage.

As to `Oc1ncnc2[nH]ncc12` [allopurinol, Allopurinol], the “Subjects reaching the treatment endpoint” value with subjects is given as “less than 50%”. Moreover, the “Sudden cardiac death, share of group” value in the data set with patients with gout is 1.8%.

Regarding `Cc1nc(-c2ccc(OCC(C)C)c(C#N)c2)sc1C(=O)O` [Febuxostat, reference compound], the “Uric acid 1 h” value in data set [1] (setting [2]) was 76.4 ± 11.4 µmol/L; in data set [1] (setting [3]), 59.7 ± 6.6 µmol/L; in data set [1] (setting [4]) it was 53.0 ± 12.0 µmol/L; in data set [1] (setting [5]) it was 47.5 ± 7.9 µmol/L. The “Uric acid 3 h” value turned out to be 91.3 ± 13.3 µmol/L in data set [1] (setting [2]), 60.7 ± 15.0 µmol/L in data set [1] (setting [3]), 71.4 ± 23.5 µmol/L in data set [1] (setting [4]) and 51.8 ± 6.7 µmol/L in data set [1] (setting [5]). Further, the “Uric acid 5 h” value is 65.7 ± 12.4 µmol/L in data set [1] (setting [2]) and 61.1 ± 8.1 µmol/L in data set [1] (setting [4]). Moreover, the “Uric acid 0 h” value amounted to 81.3 ± 7.8 µmol/L in data set [1] (setting [2]), 67.2 ± 1.9 µmol/L in data set [1] (setting [3]), 66.0 ± 11.3 µmol/L in data set [1] (setting [4]) and 65.5 ± 8.8 µmol/L in data set [1] (setting [5]). The “Serum uric acid level compared with model group” value in data set [1] (1-day administration) and in data set [1] (3-day administration) was “significantly decreased” in each case. The “All-cause mortality, HR” value in the data set with patients with gout (febuxostat vs allopurinol group, 95% CI 1.01-1.47) is recorded as 1.22. For the same molecule, the “Cardiovascular mortality, HR” value in the data set on patients with gout (febuxostat vs allopurinol group, 95% CI 1.03-1.73) is reported as 1.34. Also, the “Overall risk of adverse cardiovascular events, HR” value in the data set on patients with gout (febuxostat vs allopurinol group, average of 32 months of treatment, 95% CI 0.87-1.23) is 1.03. In the data set with patients with gout, the “Sudden cardiac death, share of group” value was 2.7%.
